Experimental data as given in US4939175A, “Use of N,N-dimethyl-1-[1-(4-chlorophenyl)cyclobutyl]-3-methylbutylamine” (priority 1988, dated 1990).

Columns and labels:
[1] = test system: dopamine neuron, norepinephrine and serotonin neuron; assay: Activation of dopamine, norepinephrine and serotonin neuron
[2] = test system: spontaneous movement of mice; assay: Spontaneous movement of mice; parameters: species or system SlC:ddy male mice; conditions: mouse, in vivo
Method: Effect of the test samples on the sponteneous movement of mice
The test sample was administered orally to SlC:ddy male mice. Immediately after, the amount of movement activity of the test mice was measured for 16 hours, at the time of 1, 2, 4, 8 and 16 hours respectively after the oral administration, by means of spontaneous movement measuring system (displacement measuring type).
Methamphetamine was used as the reference drug and distilled water was used as control sample.
The obtained results are shown in FIG. 1, columns and bars represent the mean±S.D. and statistical significance was evaluated by the multiple comparison test of Dunnet's type.

[3] = test system: memory and learning; assay: Effect on memory and learning in preclinical studies; assay type: in vivo
[4] = Japanese Unexamined Patent Publication No. 181,043 (1982); cited from earlier work

Question: With `CC(C)CC(N(C)C)C1(c2ccc(Cl)cc2)CCC1` (centres unmarked) [N,N-dimethyl-1-[1-(4-chlorophenyl)cyclobutyl]-3-methylbutylamine] as the compound, how does the “activation of dopamine neuron in addition to both norepinephrine and serotonin neuron” value [1] read?
Answer: intensive activation of dopamine neuron in addition to both norepinephrine and serotonin neuron

Question: What about the “effect on dopamine activity” value [1] of the same compound?
Answer: enhancing effect of dopamine activity

Question: What about the spontaneous movement [2] of the same compound?
Answer: increase of spontaneous movement

Question: What about the “effect on memory and learning” value [3] of the same compound?
Answer: intensive effect on memory and learning

Question: What about the “therapeutical effect as an antidepressant” value [4] of the same compound?
Answer: has a therapeutical effect as an antidepressant
